What was measured:
Test in all cases: relative viability (nuclei count vs DMSO), 5 days (fraction); higher = more cells survive
[1] = compound: O=C(CCCCCCNC(=O)c1cnc(N(c2ccccc2)c2ccccc2)nc1)NO [Ricolinostat] + N=C(N)NC(=N)NCCc1ccccc1 [Phenformin] (partner 250 µM)
Method in brief: (§1)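 Medians of duplicate plates are given as relative viability. That measure is the nuclei count in treated wells divided by the count in vehicle wells. Counts were taken on 4× images of lung cancer cell lines in 1536-well plates, 5 days after pin-tool dosing the day after seeding with one drug alone or a fixed anchor-drug dose plus five library-drug doses (not always all listed) in √10 steps.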

[2] = compound: C1=CC=C(C(=C1)C2=CC=C(C=C2)C3=CSC4=C3C(=C(C(=O)N4)C#N)O)O + N=C(N)NC(=N)NCCc1ccccc1 [Phenformin] (partner 250 µM)
Method in brief: as §1

[3] = compound: O=C(CCCCCCNC(=O)c1cnc(N(c2ccccc2)c2ccccc2)nc1)NO [Ricolinostat] + Cc1nc(NC(=O)N2CCC[C@H]2C(N)=O)sc1-c1ccnc(C(C)(C)C(F)(F)F)c1 [Alpelisib] (partner 2 µM)
Method in brief: as §1

[4] = compound: C1=CC=C(C(=C1)C2=CC=C(C=C2)C3=CSC4=C3C(=C(C(=O)N4)C#N)O)O + CS(=O)(=O)N1CCN(Cc2cc3nc(-c4cccc5[nH]ncc45)nc(N4CCOCC4)c3s2)CC1 [Pictilisib] (partner 1 µM)
Method in brief: as §1

NCI-H1792
relative viability ([1]; first compound 0.08 µM): 0.29 | relative viability ([1]; first compound 0.253 µM): 0.233 | relative viability ([1]; first compound 0.8 µM): 0.178 | relative viability ([1]; first compound 2.53 µM): 0.245 | relative viability ([2]; first compound 0.08 µM): 0.113 | relative viability ([2]; first compound 0.253 µM): 0.283 | relative viability ([2]; first compound 0.8 µM): 0.287 | relative viability ([2]; first compound 2.53 µM): 0.36 | relative viability ([2]; first compound 8 µM): 0.268 | relative viability ([3]; first compound 0.08 µM): 0.55 | relative viability ([3]; first compound 0.253 µM): 0.661 | relative viability ([3]; first compound 0.8 µM): 0.67 | relative viability ([3]; first compound 2.53 µM): 0.59 | relative viability ([4]; first compound 0.253 µM): 0.275 | relative viability ([4]; first compound 0.8 µM): 0.266 | relative viability ([4]; first compound 2.53 µM): 0.19 | relative viability ([4]; first compound 8 µM): 0.18

Reference: the supplement of paper PMC10307832
